In patent publication US7544668B2, “Saponins derived from Ilex pubescens and method of purifying the same” (priority 2006, dated 2009):

Assays:
[1] = tested on: acetic acid induced writhing response; test: abdominal writhing test induced by acetic acid in mice; format: in vivo, ICR mice
Procedure: Animal Material. Male and female ICR mice weighing 18-24 g and male SD rats weighing 150-210 g were purchased from the Laboratory Animal Services Center, the Chinese University of Hong Kong, Hong Kong. The animals were acclimated for more than 1 week under 12 hours light and 12 hours dark cycle at room temperature of 22±1° C. Chow diet and water were provided ad libitum. Animal care and treatment procedures conformed to the Institutional Guidelines and Animal Ordinance (Department of Health, Hong Kong Special Administrative Region.) Mice and rats were fasted for 16 hours and 48 hours, respectively, before experiment. Mode of Administration. The PSF solutions for anti-inflammatory and analgesic experiments were prepared by dissolving the product in 30% propanediol solution (for i.p. injection) and 0.5% (w/v) carboxymethylcellulose sodium salt (CMC—Na) (for orally administration), respectively. The reference drug indomethacin for anti-inflammatory test was dissolved in a vehicle that consisted of 10% peanut oil, 10% Tween-80 and 80% distilled water. Rotundine was suspended in 0.5% (w/v) CMC—Na salt and used as reference drug for anti-nociceptive experiment. The abdominal writhing test induced by chemical stimulation of acetic acid was performed in mice as originally described by Siegmund^2. […] Rotundine was orally administrated 1 hour before acetic acid injection. After intraperitoneal injection of 0.2 ml acetic acid (0.8% w/v) in physiological saline (0.9% w/v NaCl), animals were isolated for observation. The numbers of abdominal writhing syndrome/events, which consisted of the contraction of the abdominal area with extension of hind legs, were recorded during a 15 minutes period in each animal.

[2] = tested on: radiant heat stimulation-induced tail flick reaction; test: tail flick test, radiant heat stimulation in mice; format: in vivo, ICR mice; conditions: for Tail flick reaction time: 50 mg/kg oral
Procedure: Animal Material. Male and female ICR mice weighing 18-24 g and male SD rats weighing 150-210 g were purchased from the Laboratory Animal Services Center, the Chinese University of Hong Kong, Hong Kong. The animals were acclimated for more than 1 week under 12 hours light and 12 hours dark cycle at room temperature of 22±1° C. Chow diet and water were provided ad libitum. Animal care and treatment procedures conformed to the Institutional Guidelines and Animal Ordinance (Department of Health, Hong Kong Special Administrative Region.) Mice and rats were fasted for 16 hours and 48 hours, respectively, before experiment.
Mode of Administration. The PSF solutions for anti-inflammatory and analgesic experiments were prepared by dissolving the product in 30% propanediol solution (for i.p. injection) and 0.5% (w/v) carboxymethylcellulose sodium salt (CMC—Na) (for orally administration), respectively. The reference drug indomethacin for anti-inflammatory test was dissolved in a vehicle that consisted of 10% peanut oil, 10% Tween-80 and 80% distilled water. Rotundine was suspended in 0.5% (w/v) CMC—Na salt and used as reference drug for anti-nociceptive experiment.
The anti-nociceptive effects of PSF and the reference drug, expressed as the time required for mice tail flick after exposure to a source of radiant heat, were evaluated according to the description of d'Amour^3. […] The tail-flick response was elicited by applying radiant heat to the point ⅓ of length away from the tip of the tail. The apparatus was arranged so that when the operator turned on the lamp a timer was activated. When the mice felt pain and flicked its tail, light fell on the photocell such that the timer was automatically stopped. The intensity of the heat stimulus in the tail-flick test was adjusted so that the animal flicked its tail within 3 to 6 seconds. A 12 seconds cut-off time was set in order to prevent tail tissues from damage. Before the experiment, the heat stimulation latency of all animals was tested, and those with response time to heat stimulation from […] were excluded. The tail-flick response was measured at 0.5, 1, and 2 hours after oral administration of PSF (200, 100 and 50 mg/kg body weight) or rotundine (50 mg/kg, as reference drug) or vehicle.

[3] = tested on: carrageenan-induced paw edema; test: carrageenan induced paw edema in rats; format: in vivo, SD rats; conditions: 10 mg/kg oral
Procedure: (§1) Animal Material. Male and female ICR mice weighing 18-24 g and male SD rats weighing 150-210 g were purchased from the Laboratory Animal Services Center, the Chinese University of Hong Kong, Hong Kong. The animals were acclimated for more than 1 week under 12 hours light and 12 hours dark cycle at room temperature of 22±1° C. Chow diet and water were provided ad libitum. Animal care and treatment procedures conformed to the Institutional Guidelines and Animal Ordinance (Department of Health, Hong Kong Special Administrative Region.) Mice and rats were fasted for 16 hours and 48 hours, respectively, before experiment. Mode of Administration. The PSF solutions for anti-inflammatory and analgesic experiments were prepared by dissolving the product in 30% propanediol solution (for i.p. injection) and 0.5% (w/v) carboxymethylcellulose sodium salt (CMC—Na) (for orally administration), respectively. The reference drug indomethacin for anti-inflammatory test was dissolved in a vehicle that consisted of 10% peanut oil, 10% Tween-80 and 80% distilled water. Rotundine was suspended in 0.5% (w/v) CMC—Na salt and used as reference drug for anti-nociceptive experiment. The experiment was conducted as previously described by Winter^1. At the induction, each rat was injected with 0.1 ml freshly prepared carrageenan (1% w/v) in physiological saline (0.9% w/v NaCl) into subplantar tissues of the right hind paw. The left hind paws without injection were used as controls. PSF was i.p. administrated 10 minutes prior to carrageenan injection. Control animals received an appropriate volume of 30% propanediol. Indomethacin was orally administrated 1 hr before the carrageenan injection as a reference drug. The volumes (ml) of both hind paws were measured using a plethysmometer (Plethysmometer 7150, UGO Basile, Italy) at 1 hour before the induction and 1, 2, 3, 4, 6, and 8 hours after the induction. The increased volumes (paw edema) of the right hind paws of rats were calculated by the following equation: the increased rate (%)=(B−A)/A×100, where A and B represent the paw volumes before and at different time points after the induction, respectively.

[4] = tested on: histamine-induced paw edema; test: histamine induced paw edema in rats; format: in vivo, SD rats; conditions: 10 mg/kg oral
Procedure: as §1, with “experiment. The volumes (ml)” for “experiment. The experiment was conducted as previously described by Winter^1. At the induction, each rat was injected with 0.1 ml freshly prepared carrageenan (1% w/v) in physiological saline (0.9% w/v NaCl) into subplantar tissues of the right hind paw. The left hind paws without injection were used as controls. PSF was i.p. administrated 10 minutes prior to carrageenan injection. Control animals received an appropriate volume of 30% propanediol. Indomethacin was orally administrated 1 hr before the carrageenan injection as a reference drug. The volumes (ml)”, “induction, respectively. The acute inflammation in the hind paws was induced by the subcutaneous injection of 0.05 ml 1% prepared solutions of histamine into right hind paws of rats. The left hind paws were used as controls. Administration of PSF (12.5 mg/kg, 25 mg/kg, 50 mg/kg, 100 mg/kg body weight, i.p. injection), or of the vehicle (30% propanediol) was performed at 10 minutes prior to carrageenan injection. Indomethacin was orally administrated at 1 hour before the induction. The volumes of the injected and control paws were measured at different time points designed from 0.5 to 4 hours after injection of histamine. The increased rates in paw volume were calculated in the same way as in carrageenan.” for “induction, respectively.”

[5] = oral, in comparison with vehicle-treated animals

COc1cc2c(cc1OC)[C@@H]1Cc3ccc(OC)c(OC)c3CN1CC2 [Rotundine]
Inhibition (%) ([1]; 50 mg/kg oral 1 hour before acetic acid): 100% | Writhing count ([1]; 50 mg/kg oral 1 hour before acetic acid, 15 minutes period): 0.00 ± 0.00 | effect on number of writhing episodes of mice [1, 5]: complete analgesia | Tail flick reaction time ([2]; 0.5 h after administration): 7.552 ± 3.301 s | Tail flick reaction time ([2]; 1 h after administration): 11.044 ± 1.658 s | Tail flick reaction time ([2]; 2 h after administration): 9.813 ± 3.069 s | Tail flick reaction time ([2]; time 0): 4.223 ± 0.458 s | effect on tail flick reaction time of mice [2, 5]: prolonged the reaction time

COc1ccc2c(c1)c(CC(=O)O)c(C)n2C(=O)c1ccc(Cl)cc1 [Indomethacin]
Changes in swelling percentage after carrageenan injection (%) ([3]; 1 h after carrageenan): 8.54 ± 4.97 % | Changes in swelling percentage after carrageenan injection (%) ([3]; 2 h after carrageenan): 10.80 ± 7.77 % | Changes in swelling percentage after carrageenan injection (%) ([3]; 3 h after carrageenan): 9.49 ± 6.63 % | Changes in swelling percentage after carrageenan injection (%) ([3]; 4 h after carrageenan): 13.53 ± 10.13 % | Changes in swelling percentage after carrageenan injection (%) ([3]; 6 h after carrageenan): 17.43 ± 9.21 % | Changes in swelling percentage after carrageenan injection (%) ([3]; 8 h after carrageenan): 34.70 ± 9.21% | Change in paw swelling after histamine injection (%) ([4]; 0.5 h after histamine): 29.72 ± 10.67% | Change in paw swelling after histamine injection (%) ([4]; 1 h after histamine): 14.64 ± 9.21 % | Change in paw swelling after histamine injection (%) ([4]; 2 h after histamine): 11.51 ± 6.61 % | Change in paw swelling after histamine injection (%) ([4]; 3 h after histamine): 11.35 ± 7.35% | Change in paw swelling after histamine injection (%) ([4]; 4 h after histamine): 7.43 ± 6.05 % | Change in paw swelling after histamine injection (%) ([4]; 6 h after histamine): 4.17 ± 6.05% | effect on histamine-induced edema ([4]; at a later time than PSF): significant inhibitory effect
